This note sets out measurements from ChEMBL document CHEMBL4814010 (Bioorg Med Chem Lett, 2021).

One may read the chromatographic logD as lipophilicity estimated from chromatographic retention. Read a high chromatographic logD as a more lipophilic compound. Usually pIC50 stands for −log10 of the IC50, conventionally taken in molar units. One may read the IC50 as the concentration that inhibits the measured activity by half. Usually EC50 stands for the concentration giving half of the maximal effect. Usually Vd stands for the apparent volume that relates the amount in the body to the concentration in plasma or blood. A high value points to wide distribution into tissue. What is called clearance is a measure of how efficiently the substance is removed, as volume per time. In general, pKd refers to −log10 of the Kd, conventionally taken in molar units. Higher therefore signals a small Kd.

Structures are written as SMILES. In brackets after ≈: the same amount, converted by molar mass.

A short description of data set [1]: Metabolic stability in human hepatocytes assessed as intrinsic clearance measured per gm of tissue. It counts as ADME, cell-based, Hepatocyte.
Data set [2] can be described thus: Kinetic solubility of compound. The following applies: read-out: Kinetic_solubility. It counts as physicochemical.
A short description of data set [3]: Lipophilicity, log D of compound by chromatographic method. It counts as physicochemical.
Data set [4] in a line: Corrector activity of Z variant alpha1-antitrypsin misfolding (unknown origin) assessed as inhibition of Z variant alpha1-antitrypsin polymerisation by TR-FRET assay. Details: species or system Homo sapiens.
Data set [5] is described as follows: Corrector activity of Z variant alpha1-antitrypsin misfolding (unknown origin) expressed in CHO cells assessed as inhibition of Z variant alpha1-antitrypsin polymerisation. It counts as cell-based, Homo sapiens.
Data set [6] in a line: Corrector activity of Z variant alpha1-antitrypsin misfolding (unknown origin) expressed in CHO cells assessed as inhibition of Z variant alpha1-antitrypsin polymerisation by measuring increase in Z alpha1 antitrypsin secretion. The data set is classed as cell-based.
The nature of data set [7]: Protein binding in rat plasma. The data set is classed as ADME, cell-free. The following applies: read-out: PPB (converted).
A short description of data set [8]: Clearance in rat hepatocytes measured per gm of tissue. The data set is classed as ADME, cell-based, Hepatocyte.
Data set [9] in a line: Volume of distribution in Wistar Han rat at 1 mg/kg, iv. The data set is classed as ADME, organism-based. The following applies: in vivo.
A short description of data set [10]: Protein binding in human blood. It counts as ADME, tissue-based. The note with it: read-out: PB.
The nature of data set [11]: Protein binding in human plasma. It counts as ADME, cell-free. The following applies: read-out: PPB.
A short description of data set [12]: Clearance in Wistar Han rat blood at 1 mg/kg, iv. It counts as ADME, organism-based.
The target in the next data set is Albumin (Homo sapiens, UniProt P02768). Briefly: Binding affinity to human serum albumin. It counts as ADME. The following applies: isolated protein.
Data set [13] in a line: Elimination half life in Wistar Han rat at 1 mg/kg, iv. The note with it: in vivo, read-out: beta t1/2 (converted). It counts as ADME, organism-based.
Data set [14] can be described thus: Binding affinity to Z variant alpha1-antitrypsin (unknown origin) by competition binding assay. More on the design: species or system Homo sapiens.

Sequence of Albumin (P02768 whole entry): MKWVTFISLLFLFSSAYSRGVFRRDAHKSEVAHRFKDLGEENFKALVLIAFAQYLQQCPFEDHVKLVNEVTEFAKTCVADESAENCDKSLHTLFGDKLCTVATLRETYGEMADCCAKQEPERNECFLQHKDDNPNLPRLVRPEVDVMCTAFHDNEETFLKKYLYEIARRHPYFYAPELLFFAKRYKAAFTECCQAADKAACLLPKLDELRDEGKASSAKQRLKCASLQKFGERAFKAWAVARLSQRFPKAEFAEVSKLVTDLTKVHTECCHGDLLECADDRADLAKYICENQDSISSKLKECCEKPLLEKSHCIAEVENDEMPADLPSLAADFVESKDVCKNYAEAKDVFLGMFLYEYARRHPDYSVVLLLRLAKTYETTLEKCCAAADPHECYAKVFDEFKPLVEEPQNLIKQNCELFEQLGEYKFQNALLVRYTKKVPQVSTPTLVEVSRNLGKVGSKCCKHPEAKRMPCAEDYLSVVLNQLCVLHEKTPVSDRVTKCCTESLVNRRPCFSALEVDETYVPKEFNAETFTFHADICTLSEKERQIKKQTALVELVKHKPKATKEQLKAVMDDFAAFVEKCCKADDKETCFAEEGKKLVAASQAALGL

As for `CCC[C@@H](NC(=O)c1cccc2c1CC(=O)N2)[C@@H](O)c1ccccc1Cl`, the CLH in data set [1] was 0.4 mL/min/g. Besides, the solubility kinetic in data set [2] is at least 356 µM. The molecule further showed a chromatographic logD in [3] of 3.6. For the same molecule, the pIC50 in data set [4] amounted to 8.1; in data set [5] it was 5.7.
Taken in the same sequence, the figures for `CCC[C@@H](NC(=O)c1ccnc2c1CC(=O)N2)[C@@H](O)c1cccc(Cl)c1C` were 0.9 mL/min/g, at least 314 µM, 3.9, 8.1 and 5.9.
In the same order, the values of `CCC[C@@H](NC(=O)c1cccc2c1CC(=O)N2)[C@@H](O)c1ccccc1C(F)(F)F` are 0.2 mL/min/g, at least 420 µM, 3.7, 7.3 and 4.9.
On to `CCC[C@@H](NC(=O)c1ccc2cc[nH]c2c1)[C@@H](O)c1ccccc1`, for which the solubility kinetic in data set [2] is at least 439 µM. For the same molecule, in data set [3], the chromatographic logD worked out at 4.3. Further, the pIC50 in data set [4] was determined as 6.5; in [5], 4.5.
Regarding `CCC[C@@H](NC(=O)c1cccc2c1CC(=O)N2)[C@@H](O)c1ncccc1C`, the solubility kinetic in [2] is at least 392 µM. The molecule also had a chromatographic logD in [3] of 3.2. The pIC50 came out at 6.6 in [4] and 4.4 in [5].
Consider `CCC[C@@H](NC(=O)c1cncc2[nH]c(=O)[nH]c12)[C@@H](O)c1cccc(Cl)c1C`, for which, in [2], the solubility kinetic was at least 227 µM. Moreover, in data set [3], the chromatographic logD came to 3.4. Moreover, the pIC50 was 7.4 in [4] and 4.2 in data set [5].
Regarding `CCC[C@H](NC(=O)c1ccc2cc[nH]c2c1)[C@H](O)c1ccccc1`, the pIC50 in data set [4] was under 4.
`CCC[C@@H](NC(=O)c1cccc2c1CC(=O)N2)[C@@H](O)c1ccccc1C`: the CLH in data set [1] was 0.3 mL/min/g. Further, the solubility kinetic in data set [2] was at least 395 µM. The molecule also displayed a chromatographic logD in [3] of 3.4. The pIC50 in data set [4] worked out at 8.3; in data set [5], 5.6.
Consider `CCC[C@@H](NC(=O)c1ccc2cc[nH]c2c1)[C@H](O)c1ccccc1`, for which the pIC50 in [4] came out at 5.5.
On to `CCC[C@@H](NC(=O)c1cccc2c1NC(=O)C2)[C@@H](O)c1cccc(Cl)c1C`, for which the CLH in data set [1] is 3.7 mL/min/g. Besides, in [2], the solubility kinetic was found to be 128 µM (≈ 49.5 µg/mL). In addition, the chromatographic logD in data set [3] is 5.2. In addition, the pIC50 in data set [4] was 8.6; in data set [5], 6.3.
For `CCCC(NC(=O)c1ccc2cc[nH]c2c1)C(O)c1ccccc1` (stereo unspecified), in data set [4], the IC50 turned out to be 300 nM and the pIC50 was 6.5.
Turning to `CCC[C@@H](NC(=O)c1cccc2c1CC(=O)N2)[C@@H](O)c1cccc(F)c1C`, the CLH in data set [1] amounted to 0.3 mL/min/g; in data set [8], 7.4 mL/min/g. In data set [6], the EC50 is 631 nM. Moreover, the fraction unbound in data set [7] is 0.19; in data set [10], under 0.02; in data set [11] it was under 0.02. Moreover, in data set [9], the Vd turned out to be 2.3 L/kg. For the same molecule, the solubility kinetic in data set [2] was at least 528 µM. Further, the chromatographic logD in [3] turned out to be 3.8. Moreover, the pIC50 in [4] was 8.3; in data set [5], 6.3. In addition, in data set [12], the clearance worked out at 69 mL/min/kg. For the same molecule, the Activity at Albumin amounted to 84%. For the same molecule, the half-life in data set [13] is 30 min. In data set [14], this molecule came in with a pKd of 8.5.
Consider `CCC[C@@H](NC(=O)c1cccc2c1CC(=O)N2)[C@@H](O)c1cccc(F)c1Cl`, for which, in data set [1], the CLH is under 0.4 mL/min/g. Also, the solubility kinetic in data set [2] is at least 504 µM. In [3], this molecule displayed a chromatographic logD of 3.7. Also, the negative logarithm of the IC50 (pIC50) in [4] is 8.2; in data set [5], 6.2.
Take `CCC[C@@H](NC(=O)c1cccc2[nH]c(=O)oc12)[C@@H](O)c1cccc(Cl)c1C`: in [2], the solubility kinetic amounted to 326 µM (≈ 127 µg/mL). The molecule also had a chromatographic logD in data set [3] of 5.1. Also, the pIC50 in [4] amounted to 8; in data set [5], 5.4.
Turning to `CCC[C@@H](NC(=O)c1ccc2oc(=O)[nH]c2c1)[C@@H](O)c1ccccc1`, the solubility kinetic in data set [2] worked out at 299 µM (≈ 102 µg/mL). Also, in data set [3], the chromatographic logD was 3.2. Also, the values for the pIC50 in data set [4] and in data set [5] were 6.3 and under 4, respectively.
For the molecule `CCC[C@@H](NC(=O)c1cccc2[nH]c(=O)ccc12)[C@@H](O)c1cccc(Cl)c1C`, the solubility kinetic in data set [2] was determined as 309 µM (≈ 123 µg/mL). Moreover, the chromatographic logD in data set [3] is 3.7. The pIC50 in data set [4] is listed as 7.7; in data set [5], 4.8.
In the case of `CCC[C@@H](NC(=O)c1cccc2c1CC(=O)N2)[C@@H](O)c1cccc(C)c1`, in [2], the solubility kinetic worked out at 19 µM (≈ 6.7 µg/mL). Besides, the chromatographic logD in data set [3] is 3.6. In addition, the pIC50 in data set [4] amounted to 8.1; in [5], 5.7.
Consider `CCC[C@@H](NC(=O)c1ccc2oc(=O)[nH]c2c1)[C@@H](O)c1ccccc1C`, for which the solubility kinetic in data set [2] was at least 420 µM. In addition, in data set [3], the chromatographic logD was 3.9. Also, the pIC50 was found to be 6.9 in data set [4] and 4.3 in data set [5].
`CCC[C@H](NC(=O)c1ccc2cc[nH]c2c1)[C@@H](O)c1ccccc1`: the pIC50 in data set [4] is listed as 4.1.
Turning to `CCC[C@@H](NC(=O)c1cccc2oc(=O)[nH]c12)[C@@H](O)c1cccc(Cl)c1C`, the solubility kinetic in data set [2] came to 233 µM (≈ 90.6 µg/mL). The molecule further gave a chromatographic logD in data set [3] of 5.2. Besides, the pIC50 is listed as 8.2 in data set [4] and 5.1 in data set [5].
In the same order, the values of `CCC[C@@H](NC(=O)c1cccc2c1CC(=O)N2)[C@@H](O)c1ccncc1C` are 300 µM (≈ 106 µg/mL), 1.6, 6.5 and under 4.
With `CCC[C@@H](NC(=O)c1ccnc2[nH]c(=O)[nH]c12)[C@@H](O)c1cccc(Cl)c1C`, the solubility kinetic in data set [2] worked out at 200 µM (≈ 77.8 µg/mL). In data set [3], this molecule returned a chromatographic logD of 3.9. Besides, the pIC50 in data set [4] was 8; in data set [5] it was 5.5.
Taken in the same sequence, the figures for `CCC[C@@H](NC(=O)c1cccc2c1CC(=O)N2)[C@@H](O)c1cccc(Cl)c1` were 52 µM (≈ 19.4 µg/mL), 3.7, 8.4 and 6.
Regarding `CCC[C@@H](NC(=O)c1cccc2c1CC(=O)N2)[C@@H](O)c1ccccc1CC`, in [1], the CLH came to 1.6 mL/min/g. Moreover, the solubility kinetic in [2] was at least 316 µM. This molecule also returned a chromatographic logD in [3] of 4.1. In addition, the pIC50 in [4] came to 8.3; in [5] it was 6.
Taken in the same sequence, the figures for `CCC[C@@H](NC(=O)c1cccc2c1CC(=O)N2)[C@@H](O)c1cccc(Cl)c1C` were 0.4 mL/min/g, at least 450 µM, 4.3, 8.6 and 6.7.
Taken in the same sequence, the figures for `CCC[C@@H](NC(=O)c1cccc2c1CC(=O)N2)[C@@H](O)c1ccccc1OC` were under 0.8 mL/min/g, at least 299 µM, 3.4, 7.8 and 5.1.
In the case of `CCC[C@@H](NC(=O)c1cccc2c1CC(=O)N2)[C@@H](O)c1cnccc1C`, the solubility kinetic in data set [2] is at least 346 µM. In [3], the chromatographic logD came to 1.9. For the same molecule, the pIC50 in data set [4] is 5.9; in [5], under 4.
`CCC[C@@H](NC(=O)c1cccc2c1CC(=O)N2)[C@@H](O)c1cc(Cl)ccc1C`: in data set [2], the solubility kinetic was at least 408 µM. In data set [3], the chromatographic logD was found to be 4.3. The results for the pIC50 in data set [4] and in data set [5] were 8.6 and 5.3, respectively.
Take `CCC[C@@H](NC(=O)c1cccc2[nH]c(=O)[nH]c12)[C@@H](O)c1cccc(Cl)c1C`: the CLH in [1] is 1.8 mL/min/g. Further, the solubility kinetic in data set [2] is 307 µM (≈ 119 µg/mL). This molecule showed a chromatographic logD in data set [3] of 4.4. For the same molecule, the results for the pIC50 in [4] and in data set [5] were 8.5 and 6.5, respectively.
